Data published in article PMC12040169 (PLOS Biology, 2025).

Experiment: in vitro
Conditions: human, hela cells, % viability

Structure (SMILES)	viability at 28.5 h, 10 µM
CCc1nn2c(=O)cc(CN3CCN(C(=O)c4cccs4)CC3)nc2s1 [CBK306474]	108%
Cc1ccc(C#N)cc1S(=O)(=O)NC(=O)CC1CCOc2ccccc21 (stereo not drawn) [CBK306476]	85.5%
CC1(C)CCCCC1CC(=O)NS(=O)(=O)c1cccc(-c2nnco2)c1 (stereo not drawn) [CBK306477]	79.3%
COCCn1c(SC(C)C(=O)OC)nc2ccc(Br)cc2c1=O (stereo not drawn) [CBK306479]	88.5%
CCCc1nnc(SC(C)C(=O)N2CCCc3ccccc32)[nH]1 (stereo not drawn) [CBK306480]	90%
CN(CC(=O)O)C(=O)c1ccc(Oc2cccc(Br)c2)nc1 [CBK306485]	90.7%
CCc1c[nH]c(SCC(=O)c2cc(C)n(C3CCS(=O)(=O)C3)c2C)n1 (stereo not drawn) [CBK306486]	83.5%
CCC(C)CC(=O)NS(=O)(=O)c1cc(C#N)ccc1C (stereo not drawn) [CBK306487]	88.1%
COCCn1c(SCc2cn3c(C)cc(C)nc3n2)nc(C)c1C [CBK306489]	89.3%
CCOC(=O)c1csc(C2CCCN2C(=O)c2cc(SC)ccc2Cl)n1 (stereo not drawn) [CBK306491]	88%
COc1ccccc1CC(=O)NC(CCSC)c1nnc2ccccn12 (stereo not drawn) [CBK306492]	92.1%
CS(=O)(=O)c1ccc2ncnc(NCC(CO)Cc3ccccn3)c2c1 (stereo not drawn) [CBK306493]	88.7%
CNC(=O)C1CCCN1C(=O)c1nnn(Cc2ccc(F)cc2F)c1C (stereo not drawn) [CBK306496]	93.2%
CCc1ncsc1C(=O)NC1CCCN(c2ccn(C)n2)C1=O (stereo not drawn) [CBK306498]	104%
Cc1c(C(=O)N(C)C2CCNCC2)nnn1-c1ccc2ncccc2c1 [CBK306500C]	84.8%
NCC(NC(=O)c1cnc(-c2ccncc2)s1)C1CCCCC1 (stereo not drawn) [CBK306502C]	104%
COCCN(Cc1nccs1)C(=O)C1CCc2nn(C)c(=O)n2C1 (stereo not drawn) [CBK306506]	103%
Cn1ncc(N2CCN(C(=O)CCN3CCCCCC3=O)CC2)cc1=O [CBK306508]	109%

Structure (SMILES)	viability at 28.5 h, 10 µM
COC(=O)N1CCN(C(=O)c2cc(C(C)C)n3ncnc3n2)CC1 [CBK306509]	85.4%
Cc1nn(C)c(C)c1CCc1nc(CN2CCN(C)CC2)no1 [CBK306510]	110%
CCn1cc(CN(C)Cc2nccs2)c2cc(C(=O)O)ncc21 [CBK306512]	85.3%
Cc1cnc2c(Cl)c(C(=O)N3CCN(C)C4(CCNCC4)C3)nn2c1 [CBK306513]	92.9%
Cc1ccc(C(=O)NCc2cccnc2N(C)C2CCCCC2)cn1 [CBK306514]	116%
COc1cc2c(cc1-c1cn(CCN3CCCOC3=O)nn1)CCC2 [CBK306515]	107%
Cc1cn2cccc(C(=O)N3CCCCC3CCN3CCOCC3)c2n1 (stereo not drawn) [CBK306518]	90.3%
CCC(NC(=O)Nc1cc(N2CCOCC2)ccc1Cl)c1nccs1 (stereo not drawn) [CBK306519]	93.2%
OC(c1cccs1)C1CCN(Cc2ccc(-n3cncn3)cc2)CC1 (stereo not drawn) [CBK306523]	97.8%
O=c1c2sc(-c3ccc(F)cc3)cc2ncn1CC1(O)CCCNC1 (stereo not drawn) [CBK306525]	88.4%
CCCCC1C(=O)N(C)CCN1C(=O)c1cc(C)c(CC)n(C)c1=O (stereo not drawn) [CBK306527]	91.2%
CCn1ncnc1CN(C)Cc1ccc2c(c1)CN(C)C2 [CBK306530]	86.1%
CCN(C(=O)Nc1cccnc1Oc1ccc(F)cc1)C1CCOCC1 [CBK306535]	89.5%
Cc1nn(CC(=O)N(C)CCn2ccnc2C)c(=O)c2ccccc12 [CBK306536]	91.8%
CN(C(=O)NC1CCN(Cc2cccc(O)c2)CC1)C1CCS(=O)(=O)C1 (stereo not drawn) [CBK306538]	83.5%
COCCNS(=O)(=O)c1cccc2c1CN(C(=O)c1ccccc1)CC2 [CBK306539]	106%
Cc1ccc(F)c(OC2(C(=O)O)CCN(Cc3cccc(C)n3)CC2)c1 [CBK306541]	98.8%
CC(C)Cn1cncc1CNC(=O)Nc1ccc2[nH]nnc2c1 [CBK306549]	91.9%
